Assay results published in paper PMC6588613, “Lupin (Lupinus spp.) seeds exert anthelmintic activity associated with their alkaloid content” (Scientific Reports, 2019).
Converted amounts (≈) assume the structure as drawn. Where two headings read alike, the source gives them in different places.

What was measured:
[1] = tested on: drug-susceptible H. contortus infective larvae; experiment: Automated Larval Migration Assay (ALMA), drug-susceptible isolate; format: cell-based, Haemonchus contortus; conditions: for larval migration as percentage of control larval migration (ALMA): drug-susceptible larvae, 250 µg/mL (compound 2: 150 µg/mL), 4 h, ± s.d.
Source text: Parasite material was maintained by the INRA animal parasite nematode collection. Two H. contortus isolates that were. susceptible or resistant to every licensed anthelmintic compound in France (benzimidazoles, levamisole, macrocyclic lactones) were used. […] To establish whether lupin effect was conserved across GIN species, a fully susceptible French T. circumcincta isolate[51] was used. […] For every test, infective larvae were exsheathed with 0.5% hypochlorite solution and rinsed thrice with water before subsequent incubation in 5 mg/mL solutions of either crude maceration, alkaloidic fraction or non-alkaloidic fraction, levamisole (10 µM) or water, for 18 h at 20 °C. At the end of the incubation period, 100 L3 were deposited on migration plates with 20 µm mesh at 38 °C for 2 h as described elsewhere. […] Dose-response assays were run with six control replicates and four replicates by concentration tested (0, 5, 7.5 and 10 mg/mL for E063 alkaloids and 0, 2, 4, 6 and 8 mg/mL for ENERGY alkaloids).
(§1) Because of the scarcity of fractionated alkaloidic compounds (2.7 to 12.8 mg), their anthelmintic effect on infective H. contortus larvae was measured using ALMA. This technique relies on larval auto-fluorescence generated through ultraviolet excitation[42],[43]. Every alkaloidic compound was incubated for 4 h at 20 °C with 7,500 H. contortus infective larvae each. Larvae were then passed through a 20 μm sieve and left for a 60 s stabilization time before migration into the spectrofluorimeter cuvette. Cumulative fluorescence resulting from larval migration into the cuvette and correlating the total number of larvae[43] was recorded during 5 min. Each set of experiment was performed in triplicate at a concentration of 250 µg/mL but for compound 2 (150 µg/mL). Levamisole 10 µM was used as a positive control.

[2] = tested on: susceptible control H. contortus; experiment: In vitro drug susceptibility of the susceptible control (assay not given); format: cell-based; conditions: Haemonchus contortus
[3] = tested on: multidrug resistant H. contortus isolate; experiment: In vitro drug susceptibility of the multidrug resistant isolate (assay not given); format: cell-based, Haemonchus contortus
[4] = tested on: multidrug-resistant H. contortus infective larvae; experiment: Automated Larval Migration Assay (ALMA), multidrug-resistant isolate; format: cell-based, Haemonchus contortus; conditions: 250 µg/mL, ± s.d.
Procedure: as §1

[5] = tested on: C. elegans levamisole-sensitive AChR (Cel-L-AChR); experiment: Xenopus laevis oocyte two-electrode voltage-clamp, Cel-L-AChR; format: cell-based, Caenorhabditis elegans
Chain of C. elegans levamisole-sensitive AChR (Cel-L-AChR) (Q27218 32-507): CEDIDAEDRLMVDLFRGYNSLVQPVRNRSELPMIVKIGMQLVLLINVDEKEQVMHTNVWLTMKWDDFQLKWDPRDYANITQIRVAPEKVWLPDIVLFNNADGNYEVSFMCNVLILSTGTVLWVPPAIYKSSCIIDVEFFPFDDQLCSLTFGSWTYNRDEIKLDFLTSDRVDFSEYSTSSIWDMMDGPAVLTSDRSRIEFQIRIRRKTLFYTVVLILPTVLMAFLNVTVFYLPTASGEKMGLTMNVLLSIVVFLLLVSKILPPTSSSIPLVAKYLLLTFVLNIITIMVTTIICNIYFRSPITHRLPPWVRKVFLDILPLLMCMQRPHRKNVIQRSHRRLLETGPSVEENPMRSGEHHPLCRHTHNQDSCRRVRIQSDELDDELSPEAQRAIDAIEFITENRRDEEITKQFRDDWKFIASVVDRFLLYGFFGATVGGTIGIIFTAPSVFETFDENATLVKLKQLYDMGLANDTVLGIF
Chain of C. elegans levamisole-sensitive AChR (Cel-L-AChR) (P48181 27-493, further chain): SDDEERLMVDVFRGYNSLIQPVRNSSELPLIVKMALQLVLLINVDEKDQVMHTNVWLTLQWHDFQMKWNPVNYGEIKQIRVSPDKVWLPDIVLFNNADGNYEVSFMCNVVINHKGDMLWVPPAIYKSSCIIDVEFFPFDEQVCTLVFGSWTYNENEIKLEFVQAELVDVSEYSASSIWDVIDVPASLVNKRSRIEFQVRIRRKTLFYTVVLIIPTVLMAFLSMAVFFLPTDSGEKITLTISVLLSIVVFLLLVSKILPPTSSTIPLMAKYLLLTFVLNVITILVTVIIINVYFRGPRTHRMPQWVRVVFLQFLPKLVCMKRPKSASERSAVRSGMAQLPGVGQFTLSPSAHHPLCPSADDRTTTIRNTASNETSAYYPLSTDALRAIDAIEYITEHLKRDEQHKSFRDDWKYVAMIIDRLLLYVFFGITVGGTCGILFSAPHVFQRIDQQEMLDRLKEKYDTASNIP
Chain of C. elegans levamisole-sensitive AChR (Cel-L-AChR) (Q23022 17-511, further chain): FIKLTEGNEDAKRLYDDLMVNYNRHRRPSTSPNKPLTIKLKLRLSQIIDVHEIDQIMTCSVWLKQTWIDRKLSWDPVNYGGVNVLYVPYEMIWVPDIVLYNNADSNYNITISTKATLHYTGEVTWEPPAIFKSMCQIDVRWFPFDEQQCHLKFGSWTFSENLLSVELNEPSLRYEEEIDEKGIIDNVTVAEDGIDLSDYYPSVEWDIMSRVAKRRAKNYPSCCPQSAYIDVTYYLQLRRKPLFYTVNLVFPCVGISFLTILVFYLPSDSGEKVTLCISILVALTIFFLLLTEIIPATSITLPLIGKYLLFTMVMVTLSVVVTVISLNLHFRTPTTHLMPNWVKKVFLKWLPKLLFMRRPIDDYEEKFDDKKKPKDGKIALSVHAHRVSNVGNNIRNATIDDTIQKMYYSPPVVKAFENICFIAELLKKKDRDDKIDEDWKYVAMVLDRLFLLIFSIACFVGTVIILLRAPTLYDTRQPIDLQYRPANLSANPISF
Chain of C. elegans levamisole-sensitive AChR (Cel-L-AChR) (Q9N587 24-502, further chain): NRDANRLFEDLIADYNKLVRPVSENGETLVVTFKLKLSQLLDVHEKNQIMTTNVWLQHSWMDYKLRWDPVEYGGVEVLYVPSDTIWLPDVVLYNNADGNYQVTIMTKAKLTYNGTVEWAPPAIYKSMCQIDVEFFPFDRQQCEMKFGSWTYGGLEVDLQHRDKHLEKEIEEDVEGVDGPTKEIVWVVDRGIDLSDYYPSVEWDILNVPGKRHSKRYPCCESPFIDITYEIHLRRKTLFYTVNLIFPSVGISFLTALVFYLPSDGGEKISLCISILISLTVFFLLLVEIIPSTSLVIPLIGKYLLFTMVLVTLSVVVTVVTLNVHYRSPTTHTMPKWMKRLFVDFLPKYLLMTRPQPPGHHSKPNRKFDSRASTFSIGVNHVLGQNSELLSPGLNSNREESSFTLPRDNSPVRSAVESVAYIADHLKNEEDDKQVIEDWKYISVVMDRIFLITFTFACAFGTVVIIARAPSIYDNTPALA
Chain of C. elegans levamisole-sensitive AChR (Cel-L-AChR) (Q93329 entry or part of it, further chain): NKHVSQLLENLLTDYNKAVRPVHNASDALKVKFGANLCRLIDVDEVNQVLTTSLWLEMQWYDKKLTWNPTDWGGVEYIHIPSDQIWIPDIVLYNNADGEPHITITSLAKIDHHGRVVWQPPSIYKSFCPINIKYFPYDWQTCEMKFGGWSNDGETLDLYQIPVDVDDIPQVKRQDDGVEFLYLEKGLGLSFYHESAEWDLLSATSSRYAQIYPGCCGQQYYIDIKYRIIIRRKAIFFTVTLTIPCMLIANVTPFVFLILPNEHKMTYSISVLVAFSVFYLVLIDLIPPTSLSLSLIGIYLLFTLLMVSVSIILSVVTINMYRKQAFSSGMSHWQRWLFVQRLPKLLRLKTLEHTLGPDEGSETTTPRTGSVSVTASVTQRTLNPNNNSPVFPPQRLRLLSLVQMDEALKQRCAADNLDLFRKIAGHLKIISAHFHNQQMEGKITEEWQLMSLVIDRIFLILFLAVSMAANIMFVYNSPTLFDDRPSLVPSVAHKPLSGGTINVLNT
Source text: (§2) The lupanine and alkaloid extracts from lupin seeds were perfused on defolliculated X. laevis oocytes (Ecocyte Bioscience, Dortmund, Germany) expressing either the C. elegans nicotine-sensitive nAChR subtype (Cel-N-nAChR, encoded by acr-16[53]), or its levamisole-sensitive counterpart (Cel-L-nAChR, encoded by unc-38, unc-63, unc-29, lev-1 and lev-8[53]). In the lack of H. contortus nicotine-sensitive AChR described, the sole levamisole-sensitive nAChR subtype 1 (Hco-L-nAChR1, encoded by unc-29.1, unc-38, unc-63 and acr-8[29]) from H. contortus was also expressed. Expression of recombinant nAChRs was achieved by microinjection of cRNAs into the oocyte cytoplasm and two-electrode voltage-clamp recordings were carried out as previously described.
(§3) Dose-response data were modelled as a log-logistic regression with two parameters, i.e. the curve slope and the associated median excitatory (EC50) or inhibitory (IC50) concentration using the drc package v3.0-1[58]. To account for differences in maximal response values, a third parameter was added for electrophysiology data modelling.

[6] = tested on: drug-susceptible Haemonchus contortus infective larvae; experiment: Larval migration inhibition assay (LMIA), fully susceptible isolate; format: cell-based
[7] = target: C. elegans nicotine-sensitive AChR (Cel-N-AChR, acr-16) (Caenorhabditis elegans, UniProt P48180); experiment: Xenopus laevis oocyte two-electrode voltage-clamp, Cel-N-AChR; format: cell-based
Chain of C. elegans nicotine-sensitive AChR (Cel-N-AChR, acr-16) (P48180 20-498): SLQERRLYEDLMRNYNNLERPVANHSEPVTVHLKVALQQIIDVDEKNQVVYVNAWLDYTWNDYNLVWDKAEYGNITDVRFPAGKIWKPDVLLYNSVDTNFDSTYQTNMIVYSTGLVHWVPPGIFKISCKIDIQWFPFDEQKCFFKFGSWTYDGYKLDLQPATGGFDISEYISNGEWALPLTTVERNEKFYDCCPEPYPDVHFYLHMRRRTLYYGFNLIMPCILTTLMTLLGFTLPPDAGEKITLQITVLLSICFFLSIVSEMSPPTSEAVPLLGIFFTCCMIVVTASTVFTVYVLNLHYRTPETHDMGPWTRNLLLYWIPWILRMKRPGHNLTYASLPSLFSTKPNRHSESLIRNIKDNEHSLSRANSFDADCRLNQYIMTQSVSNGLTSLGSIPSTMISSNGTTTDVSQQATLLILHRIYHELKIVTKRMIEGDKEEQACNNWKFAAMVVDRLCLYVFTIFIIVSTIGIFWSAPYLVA
Source text: as §2
Acetylcholine was applied first to check for the presence of functional nAChRs and for current normalization in presence of lupanine or alkaloid extracts.
as §3

[8] = target: H. contortus levamisole-sensitive AChR (Hco-L-AChR-1) (Haemonchus contortus, UniProt A9XX24+D6MYE9+D6MYF3+D6MYF4); experiment: Xenopus laevis oocyte two-electrode voltage-clamp, Hco-L-AChR-1; format: cell-based
Chain of H. contortus levamisole-sensitive AChR (Hco-L-AChR-1) (D6MYE9 entry or part of it): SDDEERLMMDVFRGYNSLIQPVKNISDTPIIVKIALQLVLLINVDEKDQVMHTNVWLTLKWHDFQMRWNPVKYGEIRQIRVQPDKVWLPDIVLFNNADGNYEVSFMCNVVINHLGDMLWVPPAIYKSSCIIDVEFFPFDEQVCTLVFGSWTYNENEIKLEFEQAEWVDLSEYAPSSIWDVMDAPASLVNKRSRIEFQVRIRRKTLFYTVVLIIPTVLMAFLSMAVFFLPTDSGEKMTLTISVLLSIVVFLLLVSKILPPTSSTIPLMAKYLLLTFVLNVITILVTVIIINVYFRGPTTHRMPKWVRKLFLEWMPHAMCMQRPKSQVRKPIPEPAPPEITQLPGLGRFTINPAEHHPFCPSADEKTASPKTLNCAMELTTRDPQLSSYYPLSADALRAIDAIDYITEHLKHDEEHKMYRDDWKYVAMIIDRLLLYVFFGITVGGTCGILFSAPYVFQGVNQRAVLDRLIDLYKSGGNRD
Chain of H. contortus levamisole-sensitive AChR (Hco-L-AChR-1) (D6MYF4 entry or part of it): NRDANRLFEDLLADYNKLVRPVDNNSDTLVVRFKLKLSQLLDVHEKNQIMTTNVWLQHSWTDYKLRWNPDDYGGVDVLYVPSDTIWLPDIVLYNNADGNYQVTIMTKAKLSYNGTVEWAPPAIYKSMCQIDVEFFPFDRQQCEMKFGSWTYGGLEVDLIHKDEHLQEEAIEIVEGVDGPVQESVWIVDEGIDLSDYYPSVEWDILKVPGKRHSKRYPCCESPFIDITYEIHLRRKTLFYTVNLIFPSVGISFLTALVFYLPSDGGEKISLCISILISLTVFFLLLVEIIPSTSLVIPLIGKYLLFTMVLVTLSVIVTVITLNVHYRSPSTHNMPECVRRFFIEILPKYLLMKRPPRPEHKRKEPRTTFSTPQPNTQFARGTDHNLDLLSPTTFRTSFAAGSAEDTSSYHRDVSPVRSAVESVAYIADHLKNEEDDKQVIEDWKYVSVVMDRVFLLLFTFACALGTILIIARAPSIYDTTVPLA
Chain of H. contortus levamisole-sensitive AChR (Hco-L-AChR-1) (A9XX24 entry or part of it): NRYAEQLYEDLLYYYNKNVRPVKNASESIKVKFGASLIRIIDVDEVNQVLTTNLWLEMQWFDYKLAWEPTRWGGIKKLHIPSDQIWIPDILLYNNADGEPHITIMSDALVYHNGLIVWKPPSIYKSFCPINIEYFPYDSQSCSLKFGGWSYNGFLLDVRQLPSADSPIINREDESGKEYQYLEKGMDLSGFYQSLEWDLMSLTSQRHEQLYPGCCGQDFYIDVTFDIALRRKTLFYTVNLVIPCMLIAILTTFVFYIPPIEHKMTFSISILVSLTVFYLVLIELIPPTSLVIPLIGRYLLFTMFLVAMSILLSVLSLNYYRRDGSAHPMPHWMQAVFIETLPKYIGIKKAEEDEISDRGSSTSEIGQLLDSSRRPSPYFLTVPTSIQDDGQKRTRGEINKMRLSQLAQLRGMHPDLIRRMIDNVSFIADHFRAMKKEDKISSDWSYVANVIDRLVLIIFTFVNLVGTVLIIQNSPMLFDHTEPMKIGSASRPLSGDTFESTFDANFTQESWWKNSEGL
Chain of H. contortus levamisole-sensitive AChR (Hco-L-AChR-1) (D6MYF3 entry or part of it): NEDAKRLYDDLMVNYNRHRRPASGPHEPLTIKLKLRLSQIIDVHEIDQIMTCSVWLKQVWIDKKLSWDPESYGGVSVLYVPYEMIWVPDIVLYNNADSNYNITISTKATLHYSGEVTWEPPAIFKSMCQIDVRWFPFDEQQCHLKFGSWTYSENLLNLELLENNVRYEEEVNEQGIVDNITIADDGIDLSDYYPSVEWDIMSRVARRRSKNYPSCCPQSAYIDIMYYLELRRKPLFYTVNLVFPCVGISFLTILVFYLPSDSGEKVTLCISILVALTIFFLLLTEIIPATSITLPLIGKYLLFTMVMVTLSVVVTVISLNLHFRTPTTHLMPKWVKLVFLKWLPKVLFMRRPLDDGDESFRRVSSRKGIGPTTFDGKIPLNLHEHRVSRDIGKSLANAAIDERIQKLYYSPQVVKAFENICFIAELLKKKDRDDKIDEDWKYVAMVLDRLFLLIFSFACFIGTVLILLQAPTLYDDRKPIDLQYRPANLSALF
Source text: as §2, §3

mammalian nAChRs = conditions: cited from earlier work
[9] = tested on: multidrug resistant H. contortus isolate; format: in vivo, Haemonchus contortus; conditions: for in vivo Faecal Egg Reduction Test value: 14 days after treatment; for eggs/g 14 days after treatment: before treatment 11400 (levamisole), 1450 (ivermectin)
[10] = tested on: fully susceptible H. contortus isolate
[11] = tested on: multidrug-resistant Haemonchus contortus infective larvae; experiment: Larval migration inhibition assay (LMIA), multidrug resistant isolate; format: cell-based; conditions: levamisole 10 µM
[12] = tested on: fully susceptible French T. circumcincta isolate; experiment: microbe, parasite or virus in culture; conditions: Teladorsagia circumcincta, read-out: IC50 (ALMA)
[13] = tested on: susceptible Teladorsagia circumcincta infective larvae; experiment: Larval migration inhibition assay (LMIA), T. circumcincta; format: cell-based; conditions: lyophilized extracts 5 mg/mL, levamisole 10 µM, read-out: Average inhibitory effect (mean)
Source text: The inhibitory potential of each variety was computed as: p=1−No.treatedmigratedlarvae/AverageNo.controlmigratedlarvae

In the case of O=C(OC1CCN2C[C@@H]3C[C@@H](CN4C(=O)CCC[C@H]34)[C@@H]2C1)c1ccccc1 (stereo partly shown) [Compound 6], the “larval migration as percentage of control larval migration (ALMA)” value [1] is reported as “did not significantly inhibit”.

In the case of O[C@@]12C[C@@H](CN3CCCC[C@H]31)[C@H]1CCCCN1C2 [Compound 4, 7-hydroxysparteine], the “larval migration as percentage of control larval migration (ALMA)” value [1] is reported as 76%.

CSc1nc2cc(Cl)c(Oc3cccc(Cl)c3Cl)cc2[nH]1 [triclabendazole] gave an EC50 [2] of 0.022 µg/mL (≈ 0.0612 µM) and an EC50 ([3]; Haemonchus contortus) of 0.587 µg/mL.

For CC=C(C)C(=O)OC1CCN2C[C@@H]3C[C@@H](CN4C(=O)CCC[C@H]34)[C@@H]2C1 (stereo partly shown) [Compound 1, 13-angeloyloxy or 13-tigloyloxy-lupanine], the “larval migration as percentage of control larval migration (ALMA)” value [1] was 53.6% and the “larval migration as percentage of control (ALMA)” value [4] was 62.4%.

With O=C1CCC[C@@H]2[C@H]3C[C@@H](CN12)[C@@H]1CCCCN1C3 [lupanine] the “decrease in maximal ACh-elicited current” value ([5]; 300 µM lupanine, levamisole-sensitive receptors) was 38%, the IC50 ([5]; read-out: IC50 on ACh-elicited currents, Cel-L-AChR, n = 5) was 549 ± 64.1 µM and the “inhibition of the control migration” value ([6]; concentration response assay, 0 to 3 mM, susceptible isolate, linear, highly variable) was “less than 25%”. For the same compound, the “drop-off in the maximum amplitude of ACh-elicited currents” value ([7]; 300 µM lupanine) was 81%, the IC50 ([7]; n = 5, read-out: IC50 on ACh-elicited currents) was 116 ± 9.7 µM and the IC50 ([8]; Hco-L-AChR-1, n = 5, read-out: IC50 on ACh-elicited currents) was 540 ± 90.2 µM. The inhibition at 300 µM ([8]; read-out: decrease in maximal ACh-elicited current) was 38% and the IC50 (mammalian nAChRs) was 5 µM.

For ivermectin, the “in vivo Faecal Egg Reduction Test value” [9] was 67.8%, the “eggs/g 14 days after treatment” value [9] was 450 eggs/g and the EC50 [3] was 0.055 µM.

In the case of c1ccc([C@H]2CN3CCSC3=N2)cc1 [levamisole], the inhibition at 10 µM ([6]; Haemonchus contortus, H. contortus drug susceptible, lyophilized extracts 5 mg/mL, levamisole 10 µM, read-out: Average inhibitory effect) is reported as 99.5%, the IC50 ([6]; Haemonchus contortus, concentration response assay, susceptible H. contortus isolate) is reported as 1.61 µM and the inhibition at 10 µM ([6]; Haemonchus contortus, susceptible H. contortus L3, levamisole 10 µM, extract 5 mg/mL, estimate ± s.e.m., read-out: mean inhibition of larval migration) is reported as 99.3%. The “Percentage of migrating larvae” value ([6]; fully susceptible isolate, fractions 2.5 mg/mL, fractions 1 and 8 0.625 mg/mL, levamisole 10 µM, negative control 100) was 12.1%, the “Faecal Egg Count reduction in vivo” value [10] was 100% and the inhibition at 10 µM ([11]; Haemonchus contortus, H. contortus multidrug resistant, lyophilized extracts 5 mg/mL, read-out: Average inhibitory effect) was 30.5%. The “Percentage of migrating larvae” value ([11]; multidrug-resistant isolate, fractions 2.5 mg/mL, fractions 1 and 8 0.625 mg/mL, negative control 100) was 39.7%, the “in vivo Faecal Egg Reduction Test value” [9] was 31.6% and the “eggs/g 14 days after treatment” value [9] was 7800 eggs/g. The EC50 ([3]; Haemonchus contortus) was 15.6 µM, the EC50 ([1]; Haemonchus contortus, fully susceptible isolate, read-out: in vitro EC50 (Automated Larval Migration inhibition Assay)) was 1.1 µM and the IC50 [12] was 1.79 µM. It also gave an inhibition at 10 µM [13] of 73.7%.

For CC(=O)OCC[N+](C)(C)C [Acetylcholine, acetylcholine], the EC50 ([7]; EC50, acetylcholine alone) was 21.7 ± 0.9 µM and the EC50 ([7]; EC50 of acetylcholine with lupanine (300 µM), in the presence of 300 µM lupanine) was 80.6 ± 27.5 µM.

In the case of O=c1cccc2n1C[C@@H]1CNC[C@H]2C1 [cytisine], the IC50 (mammalian nAChRs) is listed as 0.14 µM.

With CC=C(C)C(=O)O[C@H]1CCN2C(=O)[C@@H]3C[C@@H](CN4C(=O)CCC[C@H]34)[C@@H]2C1 [Compound 5] the “larval migration as percentage of control larval migration (ALMA)” value [1] was “did not significantly inhibit”.
